Data set [1] deals with TCTP protein. The data set can be described thus: TCTP protein expression by western blot after transfection without Oligofectamine. It is filed as cell-based, human. To be noted: PC-3 prostatic cells; absence of Oligofectamine; 30 nM to 100 nM, in particular 100 nM; two or three days after transfection; LASO#Scr negative control. The method, then: Lipid-conjugated oligonucleotide, LASO#15 was tested on TCTP protein expression using western-blot (LASO#Scr was used as negative control).
(§1) Prostatic cell line were transfected with LASO#15 at various concentrations (from 30 nM to 100 nM), in OptiMEM® medium (Invitrogen), without serum and in the absence of Oligofectamine™ transfection reagent (Invitrogen).
(§2) Serum was added 4 hours after transfection. Two or three days after transfection, the level of TCTP protein expression and GAPDH (used as housekeeping gene) were determined by performing western blotting, and the in vitro growth inhibitory effects of LASO#15 on PC-3 cells were assessed using an MTT assay.
Western Blot analysis was performed as described previously (Rocchi et al., 2004, Cancer Res. 64:6595-602) with 1:2000 rabbit TCTP polyclonal antibody (Abcam Inc., Cambridge, UK). Loading levels were normalized using 1:5000 rabbit anti-glyceraldehyde-3-phosphate dehydrogenase polyclonal (Abcam Inc.).

Data set [2] deals with PC-3 cells. The data set can be described thus: MTT assay, in vitro growth inhibitory effects. It counts as cell-based, human. To be noted: transfection in the absence of Oligofectamine. The method, then: The CR prostate cancer cell line PC-3 was purchased from the American Type Culture Collection (Rockville, Md., USA). The cells were maintained in Dulbecco's Modified Eagle's Medium (Invitrogen, Cergy Pontoise, France), supplemented with 10% fetal calf serum (FCS).
as §1, §2
The MTT assay was performed as described previously (Rocchi et al., 2004, Cancer Res. 64:6595-602).
For orientation: Tetrazolium dyes change colour on reduction, which living cells bring about.

Data set [3] can be described thus: Solubility of LONs in water. It is filed as physicochemical. The conditions noted are these: adenosine-containing versus thymidine LON. The procedure:
At this point, the crude ^3LON-T15 and ^3LON-A15 behave quite differently. […] The LON eluted after ca. 42 min under these conditions. Fractions containing the LON were pooled and evaporated to dryness. The LON was dissolved in water and dried again two times to remove all residual traces of buffer. Yield of final ^3LON-T15 was excellent (40%).
(§3) As true surfactants, LONs can self assemble in aqueous media. […] The latter could be HPLC-purified and characterized by MS. […] Consequently, dynamic light scattering, transmission electron microscopy and SEM experiments were carried out with the solutions of one purified LON only. Aqueous samples containing LONs were studied under different conditions including pure water and aqueous suspensions of varying ionic strength and temperature (25-45° C.). All the LONs investigated, namely ^3LON-T15, yielded small spherical objects ranging from approximately 8 to 20 nm in diameter as characterized by DLS, transmission and scanning electronic microscopies (TEM and SEM). […] The micellar architecture of these assemblies can be explained based upon the molecular dimensions of 15 nucleobase-long LONs. Indeed, such molecules are flexible, with cone shape structure and dimensions compatible with the self-aggregation into spherical micelles.

Data set [4] can be described thus: Aggregation behavior of LONs in aqueous media. It is filed as physicochemical. The procedure: as §3, with “Consequently, dynamic light scattering, transmission electron microscopy and SEM experiments were carried out with the solutions of one purified LON only.” left out
Data set [5] in a line: Size of LON aggregates by DLS, TEM and SEM. It is filed as physicochemical. The method, then:
Transmission Electron Microscopy (TEM). Samples were imaged by negative staining microscopy with a Hitachi H 7650 electron microscope. Samples containing LONs (concentrations and mean sizes are indicated in TEM images) were transferred to a carbon-coated copper grid for ten minutes. The sample was then dried and stained with 2.5% (W/W) of uranyl acetate in water for five minutes.
Scanning Electron Microscopy (SEM). Samples were examined at an accelerating voltage of 10 kV. Typically […] of sample containing the LON aggregates were dried spread on polished stainless steel platelets and then coated with a 6-10 nm layer of gold-palladium alloy under vacuum with a sputter Coater Balzers SCD050. Observations were made with a Philips XL30S FEG instrument.
as §3

Oligonucleotides are written 5' to 3', each unit as a sugar letter and its base; * is a phosphorothioate linkage, no mark a phosphodiester; rarer units and linkages stand in square brackets, end groups in braces. Plain capitals give the bases only. {(C18)3CCH2} = lipid of three C18 alkyl chains on a quaternary carbon, linked through CH2-O-phosphodiester; {3LON} = triple hydrocarbon-chain lipid moiety added by triple chain phosphoramidite 4; d = 2'-deoxy (DNA)

For “(C18)3CCH2—O—P(═O)(—O[−1])-O-5′-AACTTGTTTCCTGCAGGTGA-3′-OH (antisense {(C18)3CCH2}-dAdAdCdTdTdGdTdTdTdCdCdTdGdCdAdGdGdTdGdA) [LASO#15]”, the “TCTP protein expression (western blot)” value in data set [1] is “specific inhibition of TCTP protein”. For the same substance, the “growth of PC-3 cells (MTT assay)” value in data set [2] was “inhibiting the growth of the PC-3 cells”.
Consider “^3LON-A15: Triple chain polyA 15mer; dA15 (SEQ ID NO: 32) coupled at its 5′ end with triple chain phosphoramidite 4 (DNA AAAAAAAAAAAAAAA; DNA, 5' {3LON}, backbone not given here)”, for which the “solubility in water (relative)” value in data set [3] was “less soluble in water than their thymidine counterparts”. In data set [4] (crude LON), the “aggregation after cleavage and deprotection” value was “immediate and irreversible aggregation”.
“^3LON-T15: Triple chain polyT 15mer; dT15 (SEQ ID NO: 33) coupled at its 5′ end with triple chain phosphoramidite 4”: the “effect of temperature on aggregate size” value in data set [5] (25-45° C. range) is “poorly affected by temperature”. Besides, the “sensitivity of aggregate size to ionic strength” value in data set [5] (DLS in water) is given as “poorly sensitive to ionic strength”. Moreover, the “change of micelle core on hybridization” value in data set [5] (DLS, hybridization of the complementary dA15, not observed with ncDNA) was “contraction of the core micelle is observed”. For the same substance, the aggregation on storage result in data set [4] (after storage at −20° C.) is reported as “slow aggregation tendency”.

(Values after patent US9707250B2, “Hydrophobically modified antisense oligonucleotides comprising a triple alkyl chain” (INSTITUT NATIONAL DE LA SANTE ET DE LA RECHERCHE MEDICALE …, priority 2013, dated 2017).)
